The text below walks through data of ChEMBL document CHEMBL3102699, “Synthesis and evaluation of 4-substituted piperidines and piperazines as balanced affinity μ opioid receptor (MOR) agonist/δ opioid receptor (DOR) antagonist ligands” (Bioorg Med Chem Lett, 2014).

The target in assay [1] is T1, Kappa-type opioid receptor (Homo sapiens, UniProt P41145). Nature of the assay: Displacement of [3H]diprenorphine from human kappa opioid receptor expressed in CHO cell membranes after 1 hr by liquid scintillation counting analysis.
For assay [2], the target named is T1, Kappa-type opioid receptor. Description: Agonist activity at human kappa opioid receptor expressed in CHO cells assessed as stimulation of [35S]-GTPgammaS binding after 1 hr by liquid scintillation counting analysis. The format is functional, cell-based.
Assay [3] deals with T2, Mu-type opioid receptor (Rattus norvegicus, UniProt P33535). Description: Displacement of [3H]diprenorphine from rat mu opioid receptor expressed in rat C6 cell membranes after 1 hr by liquid scintillation counting analysis.
Assay [4] concerns the target T2, Mu-type opioid receptor. Nature of the assay: Agonist activity at rat mu opioid receptor expressed in rat C6 cells assessed as stimulation of [35S]-GTPgammaS binding after 1 hr by liquid scintillation counting analysis. The format is functional, cell-based.
Assay [5] has as its target T3, Delta-type opioid receptor (Rattus norvegicus, UniProt P33533). Nature of the assay: Agonist activity at rat delta opioid receptor expressed in rat C6 cells assessed as stimulation of [35S]-GTPgammaS binding after 1 hr by liquid scintillation counting analysis. The format is functional, cell-based.
In assay [6] the target is T3, Delta-type opioid receptor. Nature of the assay: Displacement of [3H]diprenorphine from rat delta opioid receptor expressed in rat C6 cell membranes after 1 hr by liquid scintillation counting analysis.
Assay [7] addresses Mu-type opioid receptor (Rattus norvegicus) (UniProt P33535). Nature of the assay: Agonist activity at rat mu opioid receptor expressed in rat C6 cells assessed as stimulation of [35S]-GTPgammaS binding at 10 uM after 1 hr by liquid scintillation counting analysis relative to DAMGO. The format is functional, cell-based.
Assay [8] concerns the target T1, Kappa-type opioid receptor. Nature of the assay: Agonist activity at human kappa opioid receptor expressed in CHO cells assessed as stimulation of [35S]-GTPgammaS binding at 10 uM after 1 hr by liquid scintillation counting analysis relative to U69,593. The format is functional, cell-based.
In assay [9] the target is T1, Kappa-type opioid receptor. Description: Binding affinity to kappa opioid receptor (unknown origin).
Assay [10] addresses Mu-type opioid receptor (Homo sapiens, UniProt P35372). Nature of the assay: Binding affinity to mu opioid receptor (unknown origin).
Assay [11] concerns the target Delta-type opioid receptor (Homo sapiens, UniProt P41143). Nature of the assay: Binding affinity to delta opioid receptor (unknown origin).

T2 sequence (P33535 whole entry): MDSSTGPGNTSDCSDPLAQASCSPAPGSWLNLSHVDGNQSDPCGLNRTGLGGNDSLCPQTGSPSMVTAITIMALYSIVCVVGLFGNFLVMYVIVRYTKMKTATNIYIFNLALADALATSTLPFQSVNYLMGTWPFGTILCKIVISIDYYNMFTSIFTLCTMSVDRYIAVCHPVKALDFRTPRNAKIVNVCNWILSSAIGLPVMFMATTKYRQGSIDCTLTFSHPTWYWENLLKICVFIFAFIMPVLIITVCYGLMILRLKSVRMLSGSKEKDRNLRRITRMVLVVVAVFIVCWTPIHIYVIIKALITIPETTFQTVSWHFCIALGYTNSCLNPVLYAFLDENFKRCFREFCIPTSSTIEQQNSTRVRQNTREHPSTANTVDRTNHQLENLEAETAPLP
Chain of Mu-type opioid receptor (Rattus norvegicus) (P33535 whole entry): as above
T1 sequence (P41145 whole entry): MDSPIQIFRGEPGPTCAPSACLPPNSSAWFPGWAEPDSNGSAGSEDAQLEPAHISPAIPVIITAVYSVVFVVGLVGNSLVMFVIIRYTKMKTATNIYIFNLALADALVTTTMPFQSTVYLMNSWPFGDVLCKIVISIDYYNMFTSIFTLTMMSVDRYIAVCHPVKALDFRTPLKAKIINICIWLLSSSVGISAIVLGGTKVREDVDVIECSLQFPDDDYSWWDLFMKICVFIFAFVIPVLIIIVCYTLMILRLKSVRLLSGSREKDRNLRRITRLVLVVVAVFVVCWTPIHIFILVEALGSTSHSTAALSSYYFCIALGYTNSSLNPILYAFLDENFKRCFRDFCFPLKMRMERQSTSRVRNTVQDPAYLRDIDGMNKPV
T3 sequence (P33533 whole entry): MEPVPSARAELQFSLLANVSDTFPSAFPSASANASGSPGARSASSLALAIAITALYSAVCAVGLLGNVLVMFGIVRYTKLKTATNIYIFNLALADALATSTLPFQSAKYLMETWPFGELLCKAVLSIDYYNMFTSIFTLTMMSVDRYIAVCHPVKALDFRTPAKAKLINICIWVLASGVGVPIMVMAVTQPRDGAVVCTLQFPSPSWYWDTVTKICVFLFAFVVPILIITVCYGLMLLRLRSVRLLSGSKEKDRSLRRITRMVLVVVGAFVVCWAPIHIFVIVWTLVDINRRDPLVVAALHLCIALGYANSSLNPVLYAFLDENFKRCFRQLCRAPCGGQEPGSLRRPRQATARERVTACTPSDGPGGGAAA
Chain of Delta-type opioid receptor (Homo sapiens, UniProt P41143) (P41143 whole entry): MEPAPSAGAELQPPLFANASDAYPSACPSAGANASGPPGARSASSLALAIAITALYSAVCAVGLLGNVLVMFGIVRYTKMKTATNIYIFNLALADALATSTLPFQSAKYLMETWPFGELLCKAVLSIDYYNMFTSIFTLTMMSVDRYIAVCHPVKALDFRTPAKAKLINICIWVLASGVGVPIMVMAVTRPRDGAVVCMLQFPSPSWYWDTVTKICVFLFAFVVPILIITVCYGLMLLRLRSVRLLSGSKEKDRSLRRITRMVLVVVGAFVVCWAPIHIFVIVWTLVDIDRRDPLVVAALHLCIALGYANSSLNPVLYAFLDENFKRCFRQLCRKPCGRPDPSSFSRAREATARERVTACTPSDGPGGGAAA
Chain of Mu-type opioid receptor (Homo sapiens, UniProt P35372) (P35372 whole entry): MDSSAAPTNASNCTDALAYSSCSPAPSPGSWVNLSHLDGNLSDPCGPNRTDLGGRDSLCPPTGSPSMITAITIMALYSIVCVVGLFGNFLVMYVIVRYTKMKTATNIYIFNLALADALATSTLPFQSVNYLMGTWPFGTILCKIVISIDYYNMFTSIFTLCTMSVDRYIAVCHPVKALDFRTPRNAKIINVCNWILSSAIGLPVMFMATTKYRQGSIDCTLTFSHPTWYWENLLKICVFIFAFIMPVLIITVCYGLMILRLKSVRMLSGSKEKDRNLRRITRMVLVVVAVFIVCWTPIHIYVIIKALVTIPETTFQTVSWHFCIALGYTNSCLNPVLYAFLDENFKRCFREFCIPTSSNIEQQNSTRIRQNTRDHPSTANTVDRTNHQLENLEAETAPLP

As to `Cc1cc(O)cc(C)c1C[C@H](N)C(=O)N1CCN(CCC(c2ccccc2)c2ccccc2)CC1`, the Ki in assay [1] came out at 150 nM; in assay [3], 1.1 nM; in assay [6], 21 nM. The EC50 result in assay [2] (cho), in assay [4] (c6) and in assay [5] was “Not Active” throughout.
On to `Cc1cc(O)cc(C)c1C[C@H](N)C(=O)N1CCC(Cc2ccccc2)CC1`, for which the figures for the inhibition constant Ki in assay [1], in assay [3] and in assay [6] were 140 nM, 1.4 nM and 7.8 nM, respectively. Moreover, the concentration for a half-maximal effect (EC50) entry in assay [2] (cho), in assay [4] (c6) and in [5] was “Not Active” in each case.
As for `Cc1cc(O)cc(C)c1C[C@H](N)C(=O)N1CCN(CCCCc2ccccc2)CC1`, the values for the Ki in assay [1], in assay [3] and in [6] were 78 nM, 0.45 nM and 6.6 nM, respectively. In addition, the 50% effective concentration (EC50) result in assay [2] (cho) is “Not Active”; in assay [4] (read-out: EC50), 64 nM; in [5], “Not Active”. Besides, the %max in assay [7] was determined as 43%.
Regarding `Cc1cc(O)cc(C)c1C[C@H](N)C(=O)N1CCN(CCCCCc2ccccc2)CC1`, the Ki in [1] came to 39 nM; in [3], 0.42 nM; in [6] it was 6.9 nM. In addition, the half-maximal effective concentration (EC50) was 660 nM in assay [2] (read-out: EC50), 53 nM in assay [4] (read-out: EC50) and “Not Active” in assay [5]. The %max in assay [7] amounted to 42%; in [8] it was 12%.
For `Cc1cc(O)cc(C)c1C[C@H](N)C(=O)N1CCN(C/C=C\Cc2ccccc2)CC1`, the results for the EC50 result in assay [2] (cho), in assay [4] (read-out: EC50) and in [5] were “Not Active”, 41 nM and “Not Active”, respectively. The Ki is 0.3 nM in assay [3] and 28 nM in assay [6]. Further, the %max in [7] stood at 49%.
`Cc1cc(O)cc(C)c1C[C@H](N)C(=O)N1CCC(CCCc2ccccc2)CC1`: the Ki in assay [1] stood at 110 nM; in assay [3], 2 nM; in [6], 12 nM. The EC50 result in [2] (cho) is “Not Active”; in assay [4] (read-out: EC50), 119 nM; in assay [5], “Not Active”. In addition, in assay [7], the %max turned out to be 26%.
For `Cc1cc(O)cc(C)c1C[C@H](N)C(=O)N1CCCc2ccccc21`, the Ki in [9] was found to be 36.5 nM; in assay [10], 25.8 nM; in [11], 33 nM.
Regarding `Cc1cc(O)cc(C)c1C[C@H](N)C(=O)N1CCN(C/C=C/c2cccc3ccccc23)CC1`, the half-maximal effective concentration (EC50) entry in assay [2] (cho), in assay [4] (c6) and in [5] was “Not Active” in each case.
For `Cc1cc(O)cc(C)c1C[C@H](N)C(=O)N1CCN(CCCc2cccc3ccccc23)CC1`, the 50% effective concentration (EC50) result in assay [2] (cho) and in [5] was “Not Active” in each case.
As to `Cc1cc(O)cc(C)c1C[C@H](N)C(=O)N1CCC(Cc2ccccc2)c2ccccc21` (stereo partly specified), the results for the Ki in [1], in assay [3] and in assay [6] were 310 nM, 29 nM and 14 nM, respectively. The EC50 entry in [2] (cho), in assay [4] (c6) and in assay [5] was “Not Active” in each case.
As to `Cc1cc(O)cc(C)c1C[C@H](N)C(=O)N1CCN(CCCc2ccccc2)CC1`, the results for the Ki in [1], in [3] and in assay [6] were 250 nM, 3.8 nM and 36 nM, respectively. Moreover, the EC50 result in [2] (cho) was “Not Active”; in [4] (read-out: EC50), 150 nM; in assay [5] it was “Not Active”. The %max in assay [7] was determined as 23%.
In the case of `Cc1cc(O)cc(C)c1C[C@H](N)C(=O)N1CCN(C/C=C/Cc2ccccc2)CC1`, the Ki in assay [3] is 0.29 nM; in assay [6] it was 23 nM. Besides, the EC50 was 20 nM in assay [4] (read-out: EC50) and “Not Active” in assay [5]. Also, the %max in [7] is 36%.
